{
  "source": "patent US20060270631A1",
  "about": "“Methods for the treatment and prevention of angiogenic diseases” (priority 2005, published 2006)",
  "key": {"endogenous SK [1]": {"system": "endogenous SK", "assay": "Cellular S1P formation assay in HUVECs", "type": "cell-based, human", "details": "read-out: drug concentration that decreases S1P formation by 50%", "description": "FIG. 2. Inhibition of S1P production in HUVECs by SK inhibitors. […] After 15 minutes, cells were lysed and extracted with chloroform: methanol, and the amounts of [^3H]sphingosine in the organic phase and [^3H]S1P in the aqueous phase were then determined. Values represent the mean±sd SK activity.\nCellular S1P formation assay. Cells were grown to confluency in 24-well tissue culture plates and serum-starved for 24 hours as described above. Cells were then treated with 1% DMSO (as the drug vehicle), 20 μM dimethylsphingosine, or the indicated concentration of an SK inhibitor for 4 hours. The cells were then incubated with [^3H]sphingosine for 15 minutes, and the formation of [^3H]S1P was measured as previously described (French et al., Cancer Res 63: 5962 (2003)). […] [^3 H]Sphingosine was then added for 15 minutes, and its conversion to [^3H]S1P was measured as indicated above.\n(§1) A cell-based assay in which the phosphorylation of exogenously added [^3H]sphingosine to [^3H]S1P by endogenous SK can be quantified (French et al., Cancer Res 63: 5962 (2003)) was used to evaluate the effects of test compounds on the activity of SK in intact cells. […] Similarly, the enzymatic activity of SK in bovine RECs, and its sensitivity to SK inhibitors were assessed. […]"}, "human RECs": {"system": "human RECs", "assay": "VEGF-stimulated proliferation of human RECs ([3H]thymidine incorporation)", "type": "cell-based", "details": "VEGF 50 ng/mL, 12 hours + 2 hours [3H]thymidine, serum-starved human RECs", "description": "FIG. 6. Effects of Compound II on VEGF-stimulated proliferation of RECs. Human RECs were serum-starved for 24 hours and then left untreated or incubated with VEGF (50 ng/mL) in the presence of the indicated concentration (in μM) of Compound II for 12 hours. [3H]Thymidine was then added and the cultures were incubated an additional 2 hours. The amount of [^3H]thymidine incorporated into DNA was determined. Values represent the mean±SD of duplicate samples in a typical experiment.\nCell proliferation assay. Cells were grown to confluence in 24-well tissue culture plates and serum-starved overnight as described above. Cells were then treated with 50 ng/mL of VEGF and varying concentrations of Compound II for 12 hours. At that time, 16 μCi of [3H]thymidine was added to each well, and the cultures were incubated for an additional 2 hours. The media was then removed by aspiration, the cells were washed twice with cold PBS, and 0.8 mL of ice-cold 10% trichloroacetic acid was added to each well. […] The samples were incubated at 37° C. for 30 minutes, scraped into scintillation vials, and the amount of ^3H in the recovered genomic DNA was quantified by scintillation counting.\nWe next evaluated the effects of VEGF on the proliferation of human RECs by measuring the effects of the growth factor of the incorporation of [^3H]thymidine into the DNA of serum-starved cells. […]"}, "E-selectin and VCAM-1": {"system": "E-selectin and VCAM-1", "assay": "Western analysis of TNFα-induced E-selectin and VCAM-1 in human RECs", "type": "cell-based", "details": "TNFα 100 ng/mL, 6 hours", "description": "Western Blotting. Protein concentrations were determined using the fluorescamine assay (Bohlen et al., Arch Biochem Biophys 155: 213 (1973)) with bovine serum albumin as the standard. Samples were normalized for equal amounts of protein per lane (100 μg), separated by sodium dodecylsulfate-polyacrylamide gel electrophoresis and electrotransferred to nitrocellulose membranes. For SK analyses, membranes were blocked with 5% nonfat milk in Tris-buffered saline with Tween 20 and probed with an anti-SK rabbit polyclonal antibody at a 1:50 dilution, washed and incubated with […] antibodies conjugated to horseradish peroxidase (1 hr in 3% nonfat milk). The blots were then washed 4 times for 5 minutes at room temperature, developed with SuperSignal development reagents (Pierce Biotechnology, Inc., Rockford, Ill.) and exposed to Kodak XAR film. […]\nWestern analyses were conducted to evaluate the effects of Compound II on signaling proteins known to be regulated in endothelial cells by VEGF or TNFα. […] Cell lysates from cells treated with VEGF for 15 minutes were then analyzed for levels of phosphorylated ERK1/2 as a measure of signaling through the Ras-mediated proliferation pathway. Samples from cells treated with TNFα were analyzed for activation of NFκB, i.e. phosphoNFκB, and the down-stream proteins, cyclooxygenase-2 (Cox-2), E-selectin and VCAM-1. […]"}, "endogenous SK [2]": {"system": "endogenous SK", "assay": "Cellular S1P formation assay in HFLS-RA cells", "type": "cell-based, human", "details": "read-out: drug concentration that decreases S1P formation by 50%", "description": "Cellular S1P formation assay. Cells were grown to confluency in 24-well tissue culture plates and serum-starved for 24 hours as described above. Cells were then treated with 1% DMSO (as the drug vehicle), 20 μM dimethylsphingosine, or the indicated concentration of an SK inhibitor for 4 hours. The cells were then incubated with [^3H]sphingosine for 15 minutes, and the formation of [^3H]S1P was measured as previously described (French et al., Cancer Res 63: 5962 (2003)). In some assays, the cells were serum-starved for 24 hours and then treated with VEGF (50 ng/mL) alone or in the presence of an SK inhibitor for an additional 12 hours. [^3 H]Sphingosine was then added for 15 minutes, and its conversion to [^3H]S1P was measured as indicated above.\nas §1, with “cells. In this assay, cells are incubated with [^3 H]sphingosine for an appropriate period of time, and then [^3H]sphingosine and [^3H]S1P (formed by endogenous SK activity) are separated by extraction and levels of both species are determined by scintillation counting.” for “cells.”"}},
  "data": [
    {"smiles": "Oc1ccc(Nc2nc(-c3ccc(Cl)cc3)cs2)cc1", "note": "[Compound II]", "values": [
      {"measurement": "IC50", "setting": "endogenous SK [1]", "value": 200, "unit": "nM"},
      {"measurement": "concentration blocking the mitogenic response to VEGF", "setting": "human RECs", "value": "≥ 1.3", "unit": "µM"},
      {"measurement": "TNFα-induced up-regulation of E-selectin expression", "setting": "E-selectin and VCAM-1", "value": "completely blocked"},
      {"measurement": "TNFα-induced up-regulation of VCAM-1 expression", "setting": "E-selectin and VCAM-1", "value": "completely blocked"},
      {"measurement": "IC50", "setting": "endogenous SK [2]", "value": 190, "unit": "nM"}
    ]}
  ]
}
